Source: publication PMC12514245, “Impaired migration and lung invasion of human melanoma by a novel small molecule targeting the transmembrane domain of death receptor p75^NTR” (EMBO Molecular Medicine, 2025)
Where “and” joins values, the source holds several entries; their conditions need not be identical. Identical values can stand only once.

Assays:
[1] = test system: A875 shp75 knock-down cells; assay: Cleaved PARP western blot (apoptosis), A875 shp75; assay type: cell-based, human
Protocol: One of the main biological readouts of p75^NTR activity in response to neurotrophins is the induction of caspase-mediated apoptotic cell death (Underwood and Coulson, [2008]; Friedman, [2010]; Ibáñez and Simi, [2012]).
COS7, A875 and WM115 cell lines were cultured under standard conditions in DMEM supplemented with 10% fetal calf serum, 100 units/ml penicillin, […] streptomycin, and 2.5 mM glutamine. All cells were authenticated and tested for mycoplasma contamination. A875-NT (control) and A875 shp75 (knockdown) cell lines were described previously (Goh et al, [2018]).

[2] = assay type: in vivo; settings: oral 200 mg/kg/day
[3] = test system: A875-shp75 melanoma xenograft; assay: Melanoma lung invasion assay, A875-shp75, treatment from one day before cell injection; assay type: in vivo, SCID mice
Protocol: Next, to assess the potential inhibitory effects of Np75-4A22 on melanoma cell migration and tissue invasion in vivo, we utilized the highly metastatic human A875 xenograft model. […] Initially, to mimic metastatic dissemination from the primary tumor site, A875-NT or A875-shp75 cells expressing GFP-Luc (for live-monitoring of tumor growth) were injected intravenously in female SCID mice 24 h following a single oral administration of Np75-A422 (200 mg/kg) or drug vehicle alone. Mice received 3 cycles of Np75-A422 (200 mg/kg/day) following a 5 day on and 2 days off drug schedule for a total of 3 weeks (Fig. 8A). Metastatic spread to the lungs was monitored weekly by luciferase activity using the Xenogen IVIS-200 Optical in vivo luciferase imaging system and mice were sacrificed after the third week. […] In addition, assessment of the metastatic spread was also quantified by histological assessment of non-consecutive lung sections stained for human nucleolin to detect the tumor cells. […] In addition, and as expected, high expression of p75^NTR was detected in lung tumors established by A875-NT cells but was negligible in tumors derived from A875-shp75 cells (Fig. EV10).
Eight-week-old female SCID mice (Charles River Laboratories, Shrewsbury, MA, USA) were housed in groups of three to five and maintained on a 12-h light/dark schedule with a temperature of 22 °C ± 1 °C and a relative humidity of 50% ± 5%. Food and water were available ad libitum. This research study was reviewed and approved by the University of Calgary Animal Care Committee (AC22-0054) and McGill University (AUP-JGH-8269) and adheres to established ethical principles and guidelines. A875-GFPLuc (A875-NT) or A875-GFPLuc shp75 (A875-shp75) cells harvested using Puck’s EDTA were resuspended in PBS and injected intravenously into SCID mice (5 × 10^5 cells/200 μl per mouse). Np75-4A22 was dissolved in 0.5% sodium carboxymethyl cellulose (NaCMC) in reverse osmosis H2O and administered by oral gavage at 200 mg/kg/day starting one day prior to intravenous (tail vein) injection of tumor cells and continued for 3 1-week cycles (cycle: 5 days on drug, 2 days off drug). Tumor spread to the lung was monitored weekly by luciferase activity using the Xenogen IVIS-200 Optical in vivo luciferase imaging system as described previously (Lun et al, [2016]) and by immunohistochemistry (IHC) at designated time points. IHC was performed after formalin fixation, paraffin embedding and sectioning of the lungs, using a human-specific mouse polyclonal nucleolin antibody (1:500 dilution) and detected using Dako liquid DAB+ Substrate Chromogen System (Dako: k3468, California, USA) followed by a hematoxylin counterstain (Sigma, Oakville, ON, Canada). Sections were mounted and imaged on an Olympus phase contrast microscope (Olympus Life Science, Tokyo, Japan). For immunofluorescence, sections were stained with anti-human nucleolin and anti-human p75NTR antibodies (1:1000 dilution), subsequently detected with 1:200 dilutions of Alexa Fluor™ 488 Goat anti-Mouse IgG (H + L) Highly Cross-Adsorbed Secondary Antibody and Alexa Fluor™ 568 Goat anti-Rabbit IgG (H + L) Cross-Adsorbed Secondary Antibody. Sections were further stained with DAPI to detect all nuclei. Between each treatment, TBS Automation Wash Buffer (Biocare Medical TWB945M) was employed. Images were taken with LSM800 confocal microscope and ZEN system.

Row | Compound | apoptosis (cleavage of PARP) after p75NTR knock-down [1] | mortality, repeated dose ([2]; 21 consecutive days, females and males) | treatment-related effects, repeated dose, females ([2]; 21 days, females) | treatment-related effects, repeated dose, males ([2]; 21 days, males) | Metastatic Nodules/Lung Section, Average ([3]; A875-shp75, average of 5 non-consecutive slides per individual mouse) | Cancer Cells/Lung Section, Average per mouse ([3]; A875-shp75, average of 5 slides of one mouse) | Cancer Cells/Lung Section, group Average ([3]; A875-shp75, average of all mice) | Metastatic Nodules/Lung Section, group Average ([3]; A875-shp75, average over all mice of the group) | Metastatic Nodules/Lung Section, Slide 1 ([3]; A875-shp75, individual mouse, slide 1 of 5 non-consecutive slides/mouse) | Metastatic Nodules/Lung Section, Slide 2 ([3]; A875-shp75, individual mouse, slide 2 of 5 non-consecutive slides/mouse) | Metastatic Nodules/Lung Section, Slide 3 ([3]; A875-shp75, individual mouse, slide 3 of 5 non-consecutive slides/mouse) | Metastatic Nodules/Lung Section, Slide 4 ([3]; A875-shp75, individual mouse, slide 4 of 5 non-consecutive slides/mouse) | Metastatic Nodules/Lung Section, Slide 5 ([3]; A875-shp75, individual mouse, slide 5 of 5 non-consecutive slides/mouse) | p75NTR-negative lung tumors ([3]; oral 200 mg/kg/day, 3 weeks)
1 | Oc1ccc(-c2cncc(Nc3ccc(Br)c(Cl)c3)n2)cc1 [Div17E5] | significantly reduced the pro-apoptotic effects | – | – | – | – | – | – | – | – | – | – | – | – | –
2 | Cc1cccc(-c2cncc(Nc3ccc(Br)c(Cl)c3Cl)n2)c1C [Np75-4A22] | – | No mortality | mild decrease in lymphocyte cellularity and increase granulopoiesis | no treatment-related effects | 1.2 and 0.8 and 0.4 and 0.2 and 1.8 and 0.6 and 10.6 | 7 and 6 and 2.8 and 3.2 and 3.6 and 25.6 and 1.6 and 13 and 132.2 | 21.6667 | 1.8 | 2 and 1 and 0 and 6 | 2 and 0 and 1 and 3 and 14 | 1 and 0 and 2 and 18 | 1 and 0 and 2 and 12 | 0 and 1 and 3 | not significantly affected
